Measured values as given in US20140187548A1, “6 SUBSTITUTED IMIDAZOPYRAZINES FOR USE AS MPS-1 AND TKK INHIBITORS IN THE TREATMENT OF HYPERPROLIFERATIVE DISORDERS” (BAYER INTELLECTUAL PROPERTY GMBH, priority 2010, published 2014).

Molecular target: T1, human kinase Mps-1 (Homo sapiens, UniProt P33981)
T1 construct: N-terminally GST-tagged human full length recombinant Mps-1 kinase; GST (N); purchased Invitrogen, Karslruhe, Germany PV4071
T1 sequence (P33981 1-857): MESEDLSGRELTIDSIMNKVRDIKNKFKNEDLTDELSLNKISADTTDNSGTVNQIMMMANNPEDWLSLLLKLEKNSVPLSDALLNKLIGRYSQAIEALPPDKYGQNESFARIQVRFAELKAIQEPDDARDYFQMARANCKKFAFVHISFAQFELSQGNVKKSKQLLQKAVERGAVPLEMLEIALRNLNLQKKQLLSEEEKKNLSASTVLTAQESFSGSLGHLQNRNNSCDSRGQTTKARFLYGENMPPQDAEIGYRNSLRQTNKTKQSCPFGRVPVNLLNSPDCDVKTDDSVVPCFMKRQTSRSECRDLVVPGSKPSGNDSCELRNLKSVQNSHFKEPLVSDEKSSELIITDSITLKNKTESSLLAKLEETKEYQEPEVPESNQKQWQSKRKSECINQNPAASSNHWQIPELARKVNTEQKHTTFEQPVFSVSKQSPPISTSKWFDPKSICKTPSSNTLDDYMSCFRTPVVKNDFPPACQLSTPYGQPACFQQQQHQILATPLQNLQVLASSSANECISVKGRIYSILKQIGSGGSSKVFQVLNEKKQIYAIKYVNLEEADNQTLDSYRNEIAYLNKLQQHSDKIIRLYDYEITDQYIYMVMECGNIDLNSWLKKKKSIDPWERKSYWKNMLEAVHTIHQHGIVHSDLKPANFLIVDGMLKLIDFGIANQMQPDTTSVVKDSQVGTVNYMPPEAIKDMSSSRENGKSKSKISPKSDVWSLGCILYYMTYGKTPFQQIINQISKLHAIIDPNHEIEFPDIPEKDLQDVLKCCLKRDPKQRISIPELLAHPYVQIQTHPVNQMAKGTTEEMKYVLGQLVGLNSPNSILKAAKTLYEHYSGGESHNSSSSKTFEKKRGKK
Experiment: Mps-1 kinase assay (TR-FRET)
Assay type: biochemical
Conditions: N-terminally GST-tagged human full length recombinant Mps-1; 10 μM ATP; 1 μM peptide substrate; 15 min pre-incubation; 60 min at 22° C.
Method in brief: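 N-terminally GST-tagged full-length recombinant human Mps-1, about 1 nM final, phosphorylates a biotinylated peptide. Product detected by TR-FRET from Eu-anti-phospho-Ser/Thr antibody to streptavidin-XLent after 1 h at 22° C.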

IC50 [nM] | SMILES
4.2 | CC(C)CNc1nc(-c2ccc(C(=O)NC(C)C)cc2)cn2c(-c3ccc(C(=O)NC4CC4)cc3)cnc12 [Example 1-34, 4-{3-[4-(cyclopropyl-carbamoyl)phenyl]-8-[(2-methylpropyl)amino]imidazo[1,2-a]pyrazin-6-yl}-N-(propan-2-yl) benzamide]
43.9 | CN(C)c1ccc(-c2cn3c(-c4ccc(C(=O)NC5CC5)c(Cl)c4)cnc3c(NCc3ccnn3C)n2)cc1 [Example 1-108, 2-chloro-N-cyclopropyl-4-(6-[4-(dimethylamino)phenyl]-8-{[(1-methyl-1H-pyrazol-5-yl)methyl]amino}imidazo [1,2-a]pyrazin-3-yl) benzamide]
91.3 | CC(C)(O)CNc1nc(-c2ccn[nH]2)cn2c(-c3ccc(C(=O)NC4CC4)c(Cl)c3)cnc12 [Example 1-101, 2-chloro-N-cyclopropyl-4-{8-[(2-hydroxy-2-methyl-propyl)amino]-6-(1H-pyrazol-5-yl)imidazo [1,2-a]pyrazin-3-yl} benzamide]
32.2 | CNC(=O)CNc1nc(-c2ccccc2)cn2c(-c3ccc(C(=O)NC4CC4)cc3)cnc12 [Example 2-49, N-cyclopropyl-4-(8-{[2-(methylamino)-2-oxoethyl]amino}-6-phenylimidazo[1,2-a]pyrazin-3-yl)benzamide]
